The values that follow are results of earlier work, collected in publication PMC13080969 (Journal of Chemical Information and Modeling, 2026).

On the set-up of data set [1]: method as in PMID 39334981. Conditions: clinical comparators; read-out: CC50 (cytotoxicity); cited from earlier work.
Data set [2] relates to intracellular L. infantum amastigotes. Details: method as in PMID 39334981. Conditions: clinical comparators, cited from earlier work; for IC50: read-out: IC50 against intracellular L. infantum amastigotes.

Broadly, the CC50 is the concentration that lowers cell viability or growth by half. What is called IC50 is the concentration at which inhibition is half-maximal. Regarding `C[C@@H]1[C@H](O)[C@@H](C)/C=C/C=C/C=C/C=C/C=C/C=C/C=C/[C@H](O[C@@H]2O[C@H](C)[C@@H](O)[C@H](N)[C@@H]2O)C[C@@H]2O[C@](O)(C[C@@H](O)C[C@@H](O)[C@H](O)CC[C@@H](O)C[C@@H](O)CC(=O)O[C@H]1C)C[C@H](O)[C@H]2C(=O)O` [Amphotericin B], in data set [1], the CC50 is 1200 nM. For the same compound, in data set [2], the SI is on record as 8.6 and the IC50 was 140 nM.

For the compound `CCCCCCCCCCCCCCCCOP(=O)([O-])OCC[N+](C)(C)C` [miltefosine], in data set [1], the CC50 is 51100 nM. For the same compound, in data set [2], the SI is recorded as 138 and the IC50 is 370 nM.
